Test [1] has as its target T1, Alpha-2A adrenergic receptor (Homo sapiens, UniProt P08913). Note: in other assays of this panel Not Active means under 50% inhibition at 10 µM.
T1 sequence (P08913 whole entry): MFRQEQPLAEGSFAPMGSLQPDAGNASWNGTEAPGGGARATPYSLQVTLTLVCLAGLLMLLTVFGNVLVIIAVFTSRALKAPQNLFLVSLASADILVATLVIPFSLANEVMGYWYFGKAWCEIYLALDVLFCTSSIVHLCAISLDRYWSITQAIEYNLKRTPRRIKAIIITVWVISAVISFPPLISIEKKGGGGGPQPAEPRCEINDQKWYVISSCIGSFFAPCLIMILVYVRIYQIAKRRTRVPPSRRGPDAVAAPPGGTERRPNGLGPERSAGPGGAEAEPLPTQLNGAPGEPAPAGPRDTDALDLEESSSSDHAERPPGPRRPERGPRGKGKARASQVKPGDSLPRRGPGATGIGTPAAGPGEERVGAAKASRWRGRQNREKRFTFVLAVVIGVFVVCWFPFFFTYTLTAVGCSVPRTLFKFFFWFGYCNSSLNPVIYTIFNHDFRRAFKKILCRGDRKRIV
The format is cell membranes, Sf9, Membrane.

Test [2] has as its target T2, Alpha-2C adrenergic receptor (Homo sapiens, UniProt P18825).
T2 sequence (P18825 whole entry): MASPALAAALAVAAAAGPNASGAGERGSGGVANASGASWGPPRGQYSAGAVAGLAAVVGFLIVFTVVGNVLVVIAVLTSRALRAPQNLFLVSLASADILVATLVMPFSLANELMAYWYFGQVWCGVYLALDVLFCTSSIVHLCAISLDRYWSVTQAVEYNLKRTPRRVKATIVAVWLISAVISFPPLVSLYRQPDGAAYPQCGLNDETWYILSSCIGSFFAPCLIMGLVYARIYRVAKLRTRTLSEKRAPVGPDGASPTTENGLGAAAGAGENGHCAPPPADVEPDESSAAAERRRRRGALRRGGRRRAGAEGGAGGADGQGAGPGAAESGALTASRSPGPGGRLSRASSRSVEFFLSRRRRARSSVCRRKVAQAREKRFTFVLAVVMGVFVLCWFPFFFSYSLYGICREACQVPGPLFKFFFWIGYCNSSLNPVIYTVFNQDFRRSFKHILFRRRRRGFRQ
Put plainly: DRUGMATRIX: Adrenergic Alpha-2C radioligand binding (ligand: [3H] MK-912). The format is cell membranes, Sf9, Membrane.

Test [3] has as its target Beta-2 adrenergic receptor (Homo sapiens, UniProt P07550). Put plainly: DRUGMATRIX: Adrenergic beta2 radioligand binding (ligand: [3H] CGP-12177). As to conditions: cho; Not Active = under 50% inhibition at 10 µM. It counts as cell membranes, Membrane.
Test [4] concerns the target Aldo-keto reductase family 1 member B1 (Rattus norvegicus, UniProt P07943). Kind of test: biochemical. The format is tissue-based, Lens of camera-type eye.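 Note: inhibition of aldose reductase enzyme activity, measured with DL-glyceraldehyde as the substrate; in other assays of this panel Not Active means under 50% inhibition at 10 µM.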
The target of test [5] is Vascular endothelial growth factor receptor 1 (Homo sapiens, UniProt P17948). The format is cell-based. The settings on record: huvec. Note: in other assays of this panel Not Active means under 50% inhibition at 10 µM.
Chain of Vascular endothelial growth factor receptor 1 (P17948 whole entry): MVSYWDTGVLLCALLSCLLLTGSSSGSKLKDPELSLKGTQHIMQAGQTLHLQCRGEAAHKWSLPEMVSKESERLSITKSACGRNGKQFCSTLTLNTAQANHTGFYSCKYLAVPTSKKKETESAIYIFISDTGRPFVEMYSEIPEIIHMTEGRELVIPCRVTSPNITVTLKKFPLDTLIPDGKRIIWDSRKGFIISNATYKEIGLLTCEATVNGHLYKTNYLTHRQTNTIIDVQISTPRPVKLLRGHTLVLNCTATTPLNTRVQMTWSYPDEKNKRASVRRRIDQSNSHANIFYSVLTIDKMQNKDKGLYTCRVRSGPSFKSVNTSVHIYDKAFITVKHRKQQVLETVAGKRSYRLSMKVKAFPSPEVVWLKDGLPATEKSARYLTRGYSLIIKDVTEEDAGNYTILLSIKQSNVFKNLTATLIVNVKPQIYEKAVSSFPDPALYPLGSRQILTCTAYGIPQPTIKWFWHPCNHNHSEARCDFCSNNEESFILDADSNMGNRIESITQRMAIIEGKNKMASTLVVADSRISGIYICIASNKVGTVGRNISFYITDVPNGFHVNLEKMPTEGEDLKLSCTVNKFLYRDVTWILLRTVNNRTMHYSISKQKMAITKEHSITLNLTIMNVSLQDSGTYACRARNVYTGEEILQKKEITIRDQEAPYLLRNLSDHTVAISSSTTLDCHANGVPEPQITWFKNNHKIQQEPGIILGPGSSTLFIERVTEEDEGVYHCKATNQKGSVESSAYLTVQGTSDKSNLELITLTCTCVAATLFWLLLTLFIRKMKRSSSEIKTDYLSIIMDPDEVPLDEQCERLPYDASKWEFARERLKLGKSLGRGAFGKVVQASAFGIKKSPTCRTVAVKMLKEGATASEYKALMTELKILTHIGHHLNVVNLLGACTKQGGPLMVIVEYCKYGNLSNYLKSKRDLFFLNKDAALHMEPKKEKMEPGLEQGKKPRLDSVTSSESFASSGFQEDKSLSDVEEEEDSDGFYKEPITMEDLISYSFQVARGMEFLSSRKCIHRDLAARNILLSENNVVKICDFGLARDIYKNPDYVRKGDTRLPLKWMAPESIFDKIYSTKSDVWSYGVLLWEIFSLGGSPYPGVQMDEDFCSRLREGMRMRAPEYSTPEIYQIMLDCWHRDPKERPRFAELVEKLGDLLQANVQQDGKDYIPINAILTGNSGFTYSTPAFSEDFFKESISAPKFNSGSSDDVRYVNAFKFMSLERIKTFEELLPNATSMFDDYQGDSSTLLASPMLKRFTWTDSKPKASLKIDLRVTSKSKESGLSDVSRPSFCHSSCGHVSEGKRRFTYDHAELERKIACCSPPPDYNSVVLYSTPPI
A short description of test [6]: DRUGMATRIX: GABAA, Muscimol, Central radioligand binding (ligand: [3H] Muscimol). The format is cell membranes, Rattus norvegicus, Wistar, Brain, Membrane. As to conditions: Not Active = under 50% inhibition at 10 µM.
Test [7] can be described thus: DRUGMATRIX: Imidazoline I2, Central radioligand binding (ligand: [3H] Idazoxan). The settings on record: Not Active = under 50% inhibition at 10 µM. It counts as cell membranes, Rattus norvegicus, Wistar, Cerebral cortex, Membrane.
Test [8] has as its target T3, Neuropeptide Y receptor type 1 (Homo sapiens, UniProt P25929). Note: in other assays of this panel Not Active means under 50% inhibition at 10 µM.
T3 sequence (P25929 whole entry): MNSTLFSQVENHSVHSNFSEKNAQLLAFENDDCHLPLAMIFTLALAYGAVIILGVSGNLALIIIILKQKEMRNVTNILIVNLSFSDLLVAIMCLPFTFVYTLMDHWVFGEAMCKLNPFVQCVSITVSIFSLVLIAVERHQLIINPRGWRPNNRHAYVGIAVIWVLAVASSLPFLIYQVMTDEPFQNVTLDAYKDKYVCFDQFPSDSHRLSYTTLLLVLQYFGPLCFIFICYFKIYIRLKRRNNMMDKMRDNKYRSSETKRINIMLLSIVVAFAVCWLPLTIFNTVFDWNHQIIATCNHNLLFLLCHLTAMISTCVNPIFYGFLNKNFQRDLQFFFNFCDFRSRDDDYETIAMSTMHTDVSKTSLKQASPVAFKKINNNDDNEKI
The format is cell membranes, Membrane. The settings on record: sk-n-mc.

Test [9] deals with T4, Neuropeptide Y receptor type 2 (Homo sapiens, UniProt P49146).
T4 sequence (P49146 whole entry): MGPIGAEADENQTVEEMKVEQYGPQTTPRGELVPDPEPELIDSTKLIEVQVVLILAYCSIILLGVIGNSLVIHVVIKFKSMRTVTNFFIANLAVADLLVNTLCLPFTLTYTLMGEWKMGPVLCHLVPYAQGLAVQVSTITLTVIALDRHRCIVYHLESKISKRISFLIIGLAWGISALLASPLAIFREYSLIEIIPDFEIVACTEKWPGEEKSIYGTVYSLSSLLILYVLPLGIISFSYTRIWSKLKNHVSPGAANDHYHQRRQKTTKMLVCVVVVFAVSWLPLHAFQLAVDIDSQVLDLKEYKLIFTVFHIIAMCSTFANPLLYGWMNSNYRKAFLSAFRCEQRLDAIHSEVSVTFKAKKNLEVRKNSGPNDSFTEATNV
The format is cell membranes, Membrane. The settings on record: kan-ts.

In another test the target is T5, Progesterone receptor (Bos taurus, UniProt Q690N0).
T5 sequence (Q690N0 whole entry): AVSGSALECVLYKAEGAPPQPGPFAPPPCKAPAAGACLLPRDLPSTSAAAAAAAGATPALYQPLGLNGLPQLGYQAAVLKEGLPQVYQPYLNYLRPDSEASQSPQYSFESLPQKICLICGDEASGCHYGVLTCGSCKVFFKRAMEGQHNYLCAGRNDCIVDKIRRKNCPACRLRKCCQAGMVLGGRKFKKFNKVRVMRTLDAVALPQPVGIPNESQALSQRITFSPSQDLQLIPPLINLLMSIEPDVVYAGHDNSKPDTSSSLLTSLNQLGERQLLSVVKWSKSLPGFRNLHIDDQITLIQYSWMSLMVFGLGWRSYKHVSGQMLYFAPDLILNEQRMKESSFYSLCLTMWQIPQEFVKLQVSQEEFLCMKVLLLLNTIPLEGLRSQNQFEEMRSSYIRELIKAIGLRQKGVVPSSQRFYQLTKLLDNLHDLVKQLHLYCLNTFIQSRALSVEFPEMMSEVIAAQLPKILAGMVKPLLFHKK
Put plainly: DRUGMATRIX: Progesterone radioligand binding (ligand: [3H] R-5020). The format is tissue-based, Uterus. As to conditions: Not Active = under 50% inhibition at 10 µM.

SMILES strings stand for the structures.

Chain of Beta-2 adrenergic receptor (P07550 whole entry): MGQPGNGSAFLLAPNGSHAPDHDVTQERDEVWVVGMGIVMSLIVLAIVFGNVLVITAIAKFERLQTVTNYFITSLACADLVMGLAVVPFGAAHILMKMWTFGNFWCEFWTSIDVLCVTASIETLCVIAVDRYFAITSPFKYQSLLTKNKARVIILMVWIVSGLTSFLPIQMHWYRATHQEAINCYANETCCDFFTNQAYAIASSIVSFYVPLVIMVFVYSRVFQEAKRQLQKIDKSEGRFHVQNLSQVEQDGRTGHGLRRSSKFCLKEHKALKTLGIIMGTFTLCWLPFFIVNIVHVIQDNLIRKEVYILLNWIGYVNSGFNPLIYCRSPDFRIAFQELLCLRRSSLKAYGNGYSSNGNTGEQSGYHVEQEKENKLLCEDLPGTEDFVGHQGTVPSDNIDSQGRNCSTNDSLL

In the case of `CC1=C(CC(=O)O)c2cc(F)ccc2/C1=C\c1ccc([S+](C)[O-])cc1` (stereo not drawn), the IC50 (in general, the midpoint of a concentration-inhibition curve) was “Not Active” in test [1] (sf9); “Not Active” in test [2] (sf9); “Not Active” in [3]; 435 nM in [4] (read-out: IC50); “Not Active” in [5]; “Not Active” in test [6]. Moreover, the IC50 result (in [7]; in test [8]; in test [9]; on Progesterone receptor) was “Not Active” throughout. Moreover, the Ki entry in [6] and in [7] was “Not Active” each time.

With `N[C@H](CSC(=S)NCc1ccccc1)C(=O)O`, the IC50 result in test [1] (sf9), in test [2] (sf9), in [3], in test [4], in [5] and in test [6] was “Not Active” in each case. In addition, the IC50 entry (in [7]; in [8]; in test [9]; at Progesterone receptor) was “Not Active” in each case. In addition, the Ki entry in test [6] and in test [7] was “Not Active” throughout.

As to `CC(=O)N[C@@H]1[C@H](Oc2c3cc4cc2Oc2ccc(cc2Cl)[C@@H](O[C@@H]2O[C@@H](CO)[C@@H](O)[C@H](O)[C@@H]2NC(C)=O)[C@@H]2NC(=O)[C@H](NC(=O)[C@@H]4NC(=O)[C@H]4NC(=O)[C@@H](Cc5ccc(c(Cl)c5)O3)NC(=O)[C@H](N)c3ccc(O)c(c3)Oc3cc(O)cc4c3)c3ccc(O)c(c3)-c3c(O[C@H]4O[C@H](CO)[C@@H](O)[C@@H](O)[C@@H]4O)cc(O)cc3[C@@H](C(=O)O)NC2=O)O[C@@H](CO)[C@@H](O)[C@@H]1O`, the IC50 entry in test [1] (sf9), in test [2] (sf9), in test [3], in test [4], in test [5] and in test [6] was “Not Active” throughout. The IC50 entry (in [7]; in test [8]; in test [9]; on Progesterone receptor) was “Not Active” throughout. Besides, the Ki result in test [6] and in [7] was “Not Active” throughout.

As for `Clc1ccc2c(c1)C(N1CCNCC1)=Nc1ccccc1O2` [AMOXAPINE], the IC50 entry (in test [3]; in test [4]; in test [5]; in [8]; in test [9]; on Progesterone receptor) was “Not Active” in each case.

As for `COc1cc2c(c(OC)c1OC)-c1ccc(OC)c(=O)cc1[C@@H](NC(C)=O)CC2` [COLCHICINE], the IC50 result in test [1] (sf9), in test [2] (sf9), in test [3], in [4], in test [5] and in test [8] was “Not Active” in each case. For the same molecule, the IC50 entry (in [9]; at Progesterone receptor) was “Not Active” throughout.

On to `CN1CCC(=C2c3ccccc3C=Cc3ccccc32)CC1` [CYPROHEPTADINE], for which the IC50 was 1270 nM in [2] (read-out: IC50); “Not Active” in [3]; “Not Active” in test [4]; “Not Active” in test [5]; “Not Active” in test [8]; “Not Active” in test [9]. Moreover, the IC50 result on Progesterone receptor is “Not Active”. Further, in test [2] (read-out: Ki), the inhibition constant (Ki) – broadly, the dissociation constant of the complex between target and ligand, obtained from inhibition or displacement – was 185 nM.

As for `CC/C(=C(/CC)c1ccc(O)cc1)c1ccc(O)cc1` [DIETHYLSTILBESTROL], the IC50 entry in test [3], in test [4], in test [5], in test [8] and in [9] was “Not Active” in each case. Also, on Progesterone receptor (read-out: Ki), the Ki is 611 nM.

Take `CC(=O)N1CCN(c2ccc(OCC3COC(Cn4ccnc4)(c4ccc(Cl)cc4Cl)O3)cc2)CC1` (stereo not drawn) [KETOCONAZOLE]: the IC50 in test [1] (read-out: IC50) was 19800 nM; in test [2] (sf9), “Not Active”; in test [3], “Not Active”; in test [4], “Not Active”; in [5], “Not Active”; in test [6], “Not Active”. Also, the IC50 result (in test [7]; in test [8]; in test [9]; at Progesterone receptor) was “Not Active” each time. The Ki was 7420 nM in [1] (read-out: Ki), “Not Active” in test [6] and “Not Active” in [7].

In the case of `C=CCN1CC[C@]23c4c5ccc(O)c4O[C@H]2C(=O)CC[C@@]3(O)[C@H]1C5` [NALOXONE], the IC50 result in [1] (sf9), in test [2] (sf9), in test [3], in test [4], in [5] and in test [8] was “Not Active” throughout. Besides, the IC50 result (in test [9]; at Progesterone receptor) was “Not Active” each time.

In the case of `CC(C)NCC(O)COc1cccc2ccccc12` (stereo not drawn) [PROPRANOLOL], the IC50 entry in test [1] (sf9), in test [2] (sf9), in test [4], in [5], in test [8] and in [9] was “Not Active” in each case. The IC50 entry on Progesterone receptor is given as “Not Active”.

Turning to `O=C(c1ccc(OCCN2CCCCC2)cc1)c1c(-c2ccc(O)cc2)sc2cc(O)ccc12` [RALOXIFENE], the IC50 entry in test [3], in [4], in test [5], in test [6], in test [7] and in [8] was “Not Active” in each case. In addition, the IC50 entry (in [9]; at Progesterone receptor) was “Not Active” in each case. Besides, the Ki entry in test [6] and in test [7] was “Not Active” throughout.

With `CC(C)(C)c1ccc(C(O)CCCN2CCC(C(O)(c3ccccc3)c3ccccc3)CC2)cc1` (stereo not drawn) [TERFENADINE], the IC50 result in [1] (sf9), in test [3], in test [4], in test [5], in test [6] and in [7] was “Not Active” each time. For the same molecule, the IC50 result (in [8]; in test [9]; at Progesterone receptor) was “Not Active” throughout. The Ki result in [6] and in [7] was “Not Active” throughout.

The values are drawn from ChEMBL document CHEMBL1909046, “DrugMatrix in vitro pharmacology data”.
